In patent US8846711B2, “Heterocyclic acrylamides and their use as pharmaceuticals” (Fab Pharma S.A.S., priority 2009, dated 2014) one finds MIC data, which are given here for one compound.

Holding throughout (type): cell-based
One experiment relates to S. aureus CIP 54.146. Briefly: MIC determination using broth microdilution method. The following applies: Staphylococcus aureus, CIP54 / MSSA, read-out: MIC (μg/ml) S. aureus CIP 54.146. Here is the method:
The compounds of the invention are useful antibacterial agents having a selective spectrum of activity in vitro against bacterial strains relying on FabI and related targets. […] The activity is presented as Minimum Inhibitory Concentration (MIC) expressed in μg/ml and was determined using broth microdilution or Agar dilution methods.
(§1) Antibacterial activity was determined on strains from Mutabilis internal collection.
This protocol is compliant with Clinical Laboratory Standards Institute (CLSI) methodology as described in M7-A7 document of the CLSI. The compound to be tested is diluted according to a geometric series of reason 2 in pure DMSO. Dilutions are transferred in sterile polystyrene microplates, followed by mid-log phase bacteria in cation-adjusted Muller-Hinton broth (ca-MHB, Fluka, Reference 90922) with a final inoculum of 5×10^5 cfu/ml. Microplates are incubated overnight at 35° C. MIC is defined as the lowest concentration of antimicrobial agent that completely prevents visible bacterial growth. All manipulations, but compound handling (in pure DMSO), are performed under sterile conditions. The final concentration of DMSO in the plates is 2%.
(Dilution methods test growth across graded concentrations, often in twofold steps.)

Experiment [1] relates to Staphylococcus aureus NRS100. Briefly: MIC determination using agar dilution method. The settings on record: MRSA / NRS 100, read-out: MIC (μg/ml) NRS100. The method, then:
as §1
(§2) This protocol is compliant with Clinical Laboratory Standards Institute (CLSI) methodology as described in M7-A7 document of the CLSI. The compound to be tested is incorporated into Mueller-Hinton Agar medium (Fluka, Reference 70191) at one concentration per plate according to a geometric series of reason 2. Plates are inoculated with mid-log phase bacteria (inoculum=1×10^4 cfu/spot) and incubated overnight at 35° C. […] All manipulations, but compound handling (in pure DMSO), are performed under sterile conditions. The final DMSO concentration of DMSO in the plates is 2%. Vancomycin is used as reference.
(In agar dilution the substance is mixed into plates at graded concentrations.)

Experiment [2] relates to Staphylococcus aureus NRS119. Briefly: MIC determination using agar dilution method. The following applies: MRSA / NRS 119, read-out: MIC (μg/ml) NRS119. Here is the method: as §1, §2
Experiment [3] has as its system Staphylococcus aureus NRS120. The experiment is described as follows: MIC determination using agar dilution method. The following applies: MRSA / NRS 120, read-out: MIC (μg/ml) NRS120. The method, then: as §1, §2
Experiment [4] relates to Staphylococcus aureus NRS121. The experiment is described as follows: MIC determination using agar dilution method. The settings on record: MRSA / NRS 121, read-out: MIC (μg/ml) NRS121. The method, then: as §1, §2
Experiment [5] concerns Staphylococcus aureus NRS123. Briefly: MIC determination using agar dilution method. The following applies: MRSA / NRS 123, read-out: MIC (μg/ml) NRS123. Here is the method: as §1, §2
Experiment [6] relates to Staphylococcus aureus NRS127. Briefly: MIC determination using agar dilution method. The following applies: MRSA / NRS 127, read-out: MIC (μg/ml) NRS127. Here is the method: as §1, §2
The subject of experiment [7] is Staphylococcus aureus NRS128. Briefly: MIC determination using agar dilution method. The settings on record: MSSA / NRS 128, read-out: MIC (μg/ml) NRS128. Here is the method:
as §1, §2

Experiment [8] relates to Staphylococcus aureus NRS130. Briefly: MIC determination using agar dilution method. The following applies: MSSA / NRS 130, read-out: MIC (μg/ml) NRS130. Here is the method: as §1, §2
Experiment [9] concerns Staphylococcus aureus NRS192. The experiment is described as follows: MIC determination using agar dilution method. The settings on record: MRSA / NRS 192, read-out: MIC (μg/ml) NRS192. Here is the method:
as §1, §2

The test system of experiment [10] is Staphylococcus aureus NRS22. Briefly: MIC determination using agar dilution method. The following applies: MRSA / NRS 22, read-out: MIC (μg/ml) NRS22. Here is the method: as §1, §2
For experiment [11], the system named is Staphylococcus aureus NRS262. Briefly: MIC determination using agar dilution method. The following applies: MSSA / NRS 262, read-out: MIC (μg/ml) NRS262. The method, then:
as §1, §2

Experiment [12] has as its system Staphylococcus aureus NRS269. Briefly: MIC determination using agar dilution method. The following applies: MRSA / NRS 269, read-out: MIC (μg/ml) NRS269. The method, then: as §1, §2
In experiment [13] the test system is Staphylococcus aureus NRS382. Briefly: MIC determination using agar dilution method. The following applies: MRSA / NRS 382, read-out: MIC (μg/ml) NRS382. The method, then: as §1, §2
The subject of experiment [14] is Staphylococcus aureus NRS383. The experiment is described as follows: MIC determination using agar dilution method. The settings on record: MRSA / NRS 383, read-out: MIC (μg/ml) NRS383. Here is the method: as §1, §2
For experiment [15], the system named is Staphylococcus aureus NRS384. The experiment is described as follows: MIC determination using agar dilution method. The settings on record: MRSA / NRS 384, read-out: MIC (μg/ml) NRS384. The method, then:
as §1, §2

For experiment [16], the system named is Staphylococcus aureus NRS385. The experiment is described as follows: MIC determination using agar dilution method. The following applies: MRSA / NRS 385, read-out: MIC (μg/ml) NRS385. The method, then: as §1, §2
Experiment [17] relates to Staphylococcus aureus NRS386. The experiment is described as follows: MIC determination using agar dilution method. The settings on record: MRSA / NRS 386, read-out: MIC (μg/ml) NRS386. The method, then: as §1, §2
Experiment [18] relates to Staphylococcus aureus NRS482. The experiment is described as follows: MIC determination using agar dilution method. The following applies: MRSA / NRS 482, read-out: MIC (μg/ml) NRS482. Here is the method: as §1, §2
Experiment [19] deals with Staphylococcus aureus NRS483. Briefly: MIC determination using agar dilution method. The following applies: MRSA / NRS 483, read-out: MIC (μg/ml) NRS483. Here is the method: as §1, §2
For experiment [20], the system named is Staphylococcus aureus NRS484. The experiment is described as follows: MIC determination using agar dilution method. The following applies: MRSA / NRS 484, read-out: MIC (μg/ml) NRS484. The method, then: as §1, §2

In brackets after ≈: the same amount, converted by molar mass.

Consider `O=C1CCc2cc(/C=C/C(=O)N3CC(OCc4cccs4)C3)cnc2N1` [Example 12, 6-{(1E)-3-Oxo-3-[3-(2-thienylmethoxy)azetidin-1-yl]prop-1-en-1-yl}-3,4-dihydro-1,8-naphthyridin-2(1H)-one], for which the MIC is 4 µg/mL (≈ 10.8 µM) with S. aureus CIP 54.146; 2 µg/mL (≈ 5.41 µM) in [1]; 2 µg/mL (≈ 5.41 µM) in [2]; 2 µg/mL (≈ 5.41 µM) in experiment [3]; 2 µg/mL (≈ 5.41 µM) in experiment [4]; 2 µg/mL (≈ 5.41 µM) in experiment [5]. Also, the MIC in [6] came out at 2 µg/mL (≈ 5.41 µM); in experiment [7], 1 µg/mL (≈ 2.71 µM); in [8], 2 µg/mL (≈ 5.41 µM); in [9], 4 µg/mL (≈ 10.8 µM); in experiment [10], 4 µg/mL (≈ 10.8 µM); in experiment [11], 4 µg/mL (≈ 10.8 µM). Also, the MIC in [12] came to 4 µg/mL (≈ 10.8 µM); in experiment [13], 4 µg/mL (≈ 10.8 µM); in experiment [14] it was 4 µg/mL (≈ 10.8 µM); in experiment [15] it was 4 µg/mL (≈ 10.8 µM); in [16] it was 2 µg/mL (≈ 5.41 µM); in [17], 4 µg/mL (≈ 10.8 µM). The MIC in [18], in experiment [19] and in experiment [20] was 4 µg/mL (≈ 10.8 µM) in each case.
